We go through 1 substance from patent US6664229B2, “Methods for treatment using novel ligands of the neuropeptide receptor HFGAN72” (SmithKline Beecham p.l.c., priority 1997, dated 2003).

The subject of this assay is rats. The assay is described as follows: Cannula placement verification: dipsogenic response to icv angiotensin II. Type of assay: in vivo, rat. Particulars: 100 ng i.c.v., 5 minute period post-AII, average. How it is done: An appropriate cannula placement is indicated by an intense dipsogenic response to 100 ng i.c.v. angiotensin II (AII). To induce a dipsogenic effect, access is required to the AII receptors located on circumventricular organs around the third ventricle. The time spent drinking for a 5 minute period post-AII is recorded. This tends to be an all-or-nothing effect, but rats spend on average 150 s drinking. […] This may be verified by injection of cresyl violet and sectioning of the brain.

Consider “angiotensin II (DRVYIHPF; Angiotensin-2; UniProt P01019 25-32, looked up)”, for which the time spent drinking is given as roughly 150 s.
